Data: ChEMBL document CHEMBL5370525, “Antibiotics with novel mode of action as new weapons to fight antimicrobial resistance” (Eur J Med Chem, 2023)
pKi: −log10 of the molar value. In brackets after ≈: the same amount, converted by molar mass.

Experiments:
Staphylococcus aureus [1] = experiment: Antibacterial activity against levofloxacin-resistant Staphylococcus aureus assessed as inhibition of bacterial growth by CLSI-based assay; assay type: functional
Streptococcus pneumoniae = experiment: Antibacterial activity against Levofloxacin-nonsusceptible Streptococcus pneumoniae assessed as inhibition of bacterial growth by CLSI-based assay; assay type: functional
Staphylococcus aureus [2] = experiment: Antibacterial activity against Staphylococcus aureus 456 infected in neutropenic BALB/c mouse model assessed as reduction in lung bacterial load at 1.56 to 400 mg/kg, sc administered every 6 hr and measured after 24 hrs by CLSI-based assay (reference value: 5.6 to 6.3 log10 CFU); assay type: functional; details: dose 1.56-400 mg/kg, pooled result: one value given for 6 cell lines, strains, targets or settings
Escherichia coli [3] = experiment: Antibacterial activity against Levofloxacin-nonsusceptible Escherichia coli assessed as inhibition of bacterial growth by CLSI-based assay; assay type: functional
Clostridioides difficile [4] = experiment: Antibacterial activity against Clostridium difficile clinical isolates assessed as inhibition of bacterial growth incubated for 48 hrs by CLSI-based assay; assay type: functional
Clostridioides difficile [5] = experiment: Antibacterial activity against Clostridium difficile clinical isolates assessed as inhibition of bacterial growth; assay type: functional
[6] = Drug absorption in Syrian hamster infected with Clostridioides difficile at 75 mg/kg, po by LC-MS analysis; assay type: ADME, organism-based, Mesocricetus auratus; details: in vivo, read-out: Drug absorption
[7] = Binding affinity to recombinant Clostridium difficile 630 DNA polymerase IIIC expressed in Escherichia coli Rosetta DE3pLysS cells assessed as inhibition constant incubated for 20 mins; parameters: species or system Clostridioides difficile 630
[8] = AUC (0 to t) in mouse at 0.3 mg/kg, po incubated for 24 hrs by LC-MS-MS analysis; assay type: ADME, organism-based; parameters: dose 0.3 mg/kg, time 24 hrs, route po; details: in vivo
[9] = Plasma protein binding in mouse at 0.2 to 10 ug/ml by equilibrium dialysis; assay type: ADME, cell-free; details: at 0.2 to 10 µg/mL, dose 0.2-10 µg/ml, read-out: PPB
[10] = AUC (0 to t) in mouse at 0.6 mg/kg, po incubated for 24 hrs by LC-MS-MS analysis; assay type: ADME, organism-based; parameters: dose 0.6 mg/kg, time 24 hrs, route po; details: in vivo
[11] = AUC (0 to t) in mouse at 1 mg/kg, po incubated for 24 hrs by LC-MS-MS analysis; assay type: ADME, organism-based; parameters: dose 1 mg/kg, time 24 hrs, route po; details: in vivo
[12] = Elimination half life in mouse at 0.3 to 1 mg/kg, po incubated for 24 hrs by LC-MS/MS analysis; assay type: ADME, organism-based; details: in vivo, dose 0.3-1 mg/kg, read-out: beta t1/2 (converted)
[13] = Cmax in mouse at 0.6 mg/kg, po incubated for 24 hrs by LC-MS-MS analysis; assay type: ADME, organism-based; parameters: dose 0.6 mg/kg, time 24 hrs, route po; details: in vivo
[14] = Plasma protein binding in Sprague-Dawley rat at 0.2 to 10 ug/ml by equilibrium dialysis; assay type: ADME, cell-free; details: at 0.2 to 10 µg/mL, dose 0.2-10 µg/ml, read-out: PPB
Staphylococcus aureus [15] = experiment: Post antibiotic effect against methicillin sensitive Staphylococcus aureus 29213 at 128 times of MIC incubated for 4 hrs by; assay type: functional
[16] = Plasma protein binding in human at 0.2 to 10 ug/ml by equilibrium dialysis; assay type: ADME, cell-free; details: at 0.2 to 10 µg/mL, dose 0.2-10 µg/ml, read-out: PPB
[17] = Plasma protein binding in dog at 0.2 to 10 ug/ml by equilibrium dialysis; assay type: ADME, cell-free, Canis lupus familiaris; details: at 0.2 to 10 µg/mL, dose 0.2-10 µg/ml, read-out: PPB
[18] = Cmax in mouse at 1 mg/kg, po incubated for 24 hrs by LC-MS-MS analysis; assay type: ADME, organism-based; parameters: time 24 hrs, dose 1 mg/kg, route po; details: in vivo
Staphylococcus aureus [19] = experiment: Antibacterial activity against Staphylococcus aureus clinical isolate assessed as bacterial growth inhibtion by CLSI-based broth microdilution method; assay type: functional
Staphylococcus aureus [20] = experiment: Antibacterial activity against Staphylococcus aureus smith infected oral dosed CD-1 mouse; assay type: functional
[21] = Cmax in mouse at 0.3 mg/kg, po incubated for 24 hrs by LC-MS-MS analysis; assay type: ADME, organism-based; parameters: dose 0.3 mg/kg, time 24 hrs, route po; details: in vivo
Staphylococcus aureus [22] = experiment: Antibacterial activity against Staphylococcus aureus smith infected CD-1 mouse assessed as survival rate at 1 mg/kg, po relative to control; assay type: functional
Staphylococcus aureus [23] = experiment: Post antibiotic effect against methicillin sensitive Staphylococcus aureus 29213 at 32 times of MIC incubated for 4 hrs by; assay type: functional
Neisseria gonorrhoeae = experiment: Antibacterial activity against Neisseria gonorrhoeae ATCC 49226 assessed as inhibition of bacterial growth by agar dilution method; assay type: functional
Mycoplasma genitalium = experiment: Antibacterial activity against Mycoplasma genitalium assessed as inhibition of bacterial growth; assay type: functional; details: Mycoplasmoides genitalium
Chlamydia trachomatis = experiment: Antibacterial activity against Chlamydia trachomatis assessed as inhibition of bacterial growth; assay type: functional
Escherichia coli [24] = experiment: Antibacterial activity against Escherichia coli clinical isolates assessed as inhibition of bacterial growth incubated for 44 hrs by CLSI-based broth microdilution assay; assay type: functional
Staphylococcus aureus [25] = experiment: Antibacterial activity against Meticillin-resistant Staphylococcus aureus clinical isolates assessed as inhibition of bacterial growth incubated for 44 hrs by CLSI-based broth microdilution assay; assay type: functional
[26] = Binding affinity to N-terminal His-tagged Full-length Clostridium difficile MetRS1 expressed in Escherichia coli assessed as inhibition constant by tRNA aminoacylation/ATP:PPi assay; parameters: species or system Clostridioides difficile
[27] = Oral bioavailability in Sprague-Dawley rat; assay type: ADME, organism-based; details: in vivo
[28] = Binding affinity to N-terminal His-tagged Full-length human cytoplasmic MetRS2 expressed in Escherichia coli assessed as inhibition constant by tRNA aminoacylation/ATP:PPi assay; assay type: subcellular, Cytoplasm
[29] = Oral bioavailability in Beagle dog; assay type: ADME, organism-based, Canis lupus familiaris; details: in vivo
[30] = Binding affinity to N-terminal His-tagged Full-length Haemophilus influenzae MetRS2 expressed in Escherichia coli assessed as inhibition constant by tRNA aminoacylation/ATP:PPi assay
[31] = Binding affinity to N-terminal His-tagged Full-length human mitochondrial MetRS1 expressed in Escherichia coli assessed as inhibition constant by tRNA aminoacylation/ATP:PPi assay; assay type: mitochondria, Mitochondria
Klebsiella pneumoniae = experiment: Antibacterial activity against Klebsiella pneumoniae clinical isolates assessed as inhibition of bacterial growth incubated for 44 hrs by CLSI-based broth microdilution assay; assay type: functional
[32] = Binding affinity to N-terminal His-tagged Full-length Staphylococcus aureus MetRS1 expressed in Escherichia coli assessed as inhibition constant by tRNA aminoacylation/ATP:PPi assay
Clostridioides difficile [33] = experiment: Antibacterial activity against Clostridium difficile clinical isolates assessed as inhibition of bacterial growth incubated for 44 hrs by CLSI-based broth microdilution assay; assay type: functional
Lactobacillus sp. = experiment: Antibacterial activity against Lactobacillus sp. clinical isolates assessed as inhibition of bacterial growth incubated for 48 hrs by CLSI-based Serial 2-fold dilution; assay type: functional
[34] = Binding affinity to N-terminal His-tagged Full-length Escherichia coli MetRS2 expressed in Escherichia coli assessed as inhibition constant by tRNA aminoacylation/ATP:PPi assay
[35] = Oral bioavailability in hamster; assay type: ADME, organism-based, Mesocricetus auratus; details: in vivo
Enterococcus faecium = experiment: Antibacterial activity against Vancomycin-resistant Enterococcus faecium clinical isolates assessed as inhibition of bacterial growth incubated for 44 hrs by CLSI-based broth microdilution assay; assay type: functional
Actinomyces sp. = experiment: Antibacterial activity against Actinomyces sp. clinical isolates assessed as inhibition of bacterial growth incubated for 48 hrs by CLSI-based Serial 2-fold dilution; assay type: functional
Bifidobacterium sp. = experiment: Antibacterial activity against Bifidobacterium sp. clinical isolates assessed as inhibition of bacterial growth incubated for 48 hrs by CLSI-based Serial 2-fold dilution; assay type: functional
Acinetobacter baumannii = experiment: Antibacterial activity against Acinetobacter baumannii clinical isolates assessed as inhibition of bacterial growth incubated for 44 hrs by CLSI-based broth microdilution assay; assay type: functional
[36] = Binding affinity to N-terminal His-tagged Full-length Streptococcus pneumoniae MetRS1 expressed in Escherichia coli assessed as inhibition constant by tRNA aminoacylation/ATP:PPi assay
Pseudomonas aeruginosa = experiment: Antibacterial activity against Pseudomonas aeruginosa clinical isolates assessed as inhibition of bacterial growth incubated for 44 hrs by CLSI-based broth microdilution assay; assay type: functional

O=c1ccc2ncc(=O)n3c2n1C[C@H]3CN1CCC(NCc2cc3c(cn2)OCCC3)CC1 [GEPOTIDACIN]
MIC90 (Staphylococcus aureus [1]): 0.5 µg/mL (≈ 1.11 µM) | MIC90 (Streptococcus pneumoniae): 0.5 µg/mL (≈ 1.11 µM) | Activity (Staphylococcus aureus [2]): 1.4 log10CFU | MIC90 (Escherichia coli [3]): 0.5 µg/mL (≈ 1.11 µM)

O=c1[nH]c(NCc2ccc(Cl)c(Cl)c2)nc2ncn(CCN3CCOCC3)c12 [IBEZAPOLSTAT]
MIC50 (Clostridioides difficile [4]): 2 µg/mL (≈ 4.72 µM) | MIC (Clostridioides difficile [5]): 1 µg/mL (≈ 2.36 µM) | Fa [6]: 5% | pKi [7]: 6.49

Cc1c(CN(C)C(=O)/C=C/c2cnc3c(c2)CCC(=O)N3COP(=O)(O)O)oc2ccccc12 [AFABICIN]
AUC(0-t) at 24 h [8]: 367 ng·h/mL | fraction unbound [9]: < 0.05 | AUC(0-t) at 24 h [10]: 196 ng·h/mL | AUC(0-t) at 24 h [11]: 1030 ng·h/mL | half-life [12]: 5 h | Cmax [13]: 196 ng/mL | fraction unbound [14]: < 0.05 | PAE (Staphylococcus aureus [15]): 1.1 h | fraction unbound [16]: < 0.05 | fraction unbound [17]: < 0.05 | Cmax [18]: 304 ng/mL | MIC90 (Staphylococcus aureus [19]): < 0.015 µg/mL | ED50 (Staphylococcus aureus [20]): 0.15 mg/kg | Cmax [21]: 154 ng/mL | survival at 1 mg/kg (Staphylococcus aureus [22]): 100% | PAE (Staphylococcus aureus [23]): 0.1 h

CCc1c(Cl)c(O)c(Cl)c(O)c1C(=O)O[C@H]1[C@H](O)[C@H](OC)[C@H](OC/C2=C\C=C\C[C@H](O)/C(C)=C/[C@H](CC)[C@@H](O[C@@H]3OC(C)(C)[C@@H](OC(=O)C(C)C)[C@H](O)[C@@H]3O)/C(C)=C/C(C)=C/C[C@@H]([C@@H](C)O)OC2=O)O[C@@H]1C [FIDAXOMICIN]
MIC (Clostridioides difficile [5]): 0.15 µg/mL (≈ 0.142 µM)

C[C@@H]1CN2c3c(cc4c(N5C(=O)OC[C@@H]5C)noc4c3F)CC3(C(=O)NC(=O)NC3=O)[C@H]2[C@H](C)O1 [ZOLIFLODACIN]
MIC90 (Neisseria gonorrhoeae): 0.125 µg/mL (≈ 0.256 µM) | MIC (Mycoplasma genitalium): < 1 µg/mL | MIC (Chlamydia trachomatis): 0.5 µg/mL (≈ 1.03 µM)

O=c1cc(NCCCN[C@@H]2CCOc3c(Br)cc(Br)cc32)[nH]c2ccsc12 [CRS-3123]
MIC (Escherichia coli [24]): > 32 µg/mL | MIC (Staphylococcus aureus [25]): 0.015 µg/mL (≈ 0.0292 µM) | pKi [26]: 10.70 | bioavailability [27]: < 1% | pKi [28]: < 4.70 | bioavailability [29]: < 1% | pKi [30]: 6.75 | pKi [31]: 7.55 | MIC (Klebsiella pneumoniae): > 32 µg/mL | pKi [32]: 10.77 | MIC (Clostridioides difficile [33]): 0.5 µg/mL (≈ 0.974 µM) | MIC (Lactobacillus sp.): > 32 µg/mL | pKi [34]: 5.72 | bioavailability [35]: 0.6% | MIC (Enterococcus faecium): < 0.004 µg/mL | MIC (Actinomyces sp.): > 32 µg/mL | MIC (Bifidobacterium sp.): > 32 µg/mL | MIC (Acinetobacter baumannii): > 32 µg/mL | pKi [36]: 10.10 | MIC (Pseudomonas aeruginosa): > 32 µg/mL
